Data as given in article PMC4290489, “Identification of multiple salicylic acid-binding proteins using two high throughput screens” (Frontiers in Plant Science, 2015).

Assays:
Assay type in all cases: binding
TRX-m1 = target: T1, TRX-m1 (Arabidopsis thaliana, UniProt O48737); assay: SPR competition on 3AESA chip; competition of 4AzSA photo-crosslinking; conditions: 1-5 mM SA, HBS-EP pH 7.4 (SPR); competes with 3AESA and 4AzSA
T1 construct: gene At1g03680; N-terminal His6 (pET28a), from E. coli
T1 sequence (O48737 49-179): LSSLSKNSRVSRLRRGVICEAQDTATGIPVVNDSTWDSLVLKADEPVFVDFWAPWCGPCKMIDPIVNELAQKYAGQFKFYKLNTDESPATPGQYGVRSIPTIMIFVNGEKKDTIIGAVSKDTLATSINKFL

GSR2 = target: T2, GSR2 (Arabidopsis thaliana, UniProt Q8LCE1); assay: as above; conditions: 1-5 mM SA, HBS-EP pH 7.4 (SPR); competes with 3AESA and 4AzSA
T2 construct: gene GLN1-2; N-terminal His6 (pET28a), from E. coli
T2 sequence (Q8LCE1 1-356): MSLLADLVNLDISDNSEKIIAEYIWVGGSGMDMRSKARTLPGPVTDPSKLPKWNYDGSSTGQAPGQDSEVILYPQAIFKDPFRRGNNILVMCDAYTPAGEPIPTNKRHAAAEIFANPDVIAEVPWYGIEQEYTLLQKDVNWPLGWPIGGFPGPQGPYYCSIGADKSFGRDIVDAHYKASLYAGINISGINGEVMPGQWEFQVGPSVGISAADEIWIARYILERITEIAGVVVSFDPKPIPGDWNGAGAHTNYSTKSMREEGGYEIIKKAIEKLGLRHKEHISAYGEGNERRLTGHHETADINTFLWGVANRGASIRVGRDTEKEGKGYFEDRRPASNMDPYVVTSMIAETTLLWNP

RBCS1A = target: T3, RBCS1A (Arabidopsis thaliana, UniProt P10795); assay: as above; conditions: 1-5 mM SA, HBS-EP pH 7.4 (SPR); competes with 3AESA and 4AzSA
T3 construct: gene RBCS-1A; small subunit alone, N-terminal His6 (pET28a), from E. coli

TPPII = target: T4, TPPII (Arabidopsis thaliana, UniProt F4JVN6); assay: as above; conditions: 1-5 mM SA, HBS-EP pH 7.4 (SPR); competes with 3AESA and 4AzSA
T4 construct: gene TPP2; N-terminal His6 (pET28a), from E. coli
T4 sequence (F4JVN6 1-1380): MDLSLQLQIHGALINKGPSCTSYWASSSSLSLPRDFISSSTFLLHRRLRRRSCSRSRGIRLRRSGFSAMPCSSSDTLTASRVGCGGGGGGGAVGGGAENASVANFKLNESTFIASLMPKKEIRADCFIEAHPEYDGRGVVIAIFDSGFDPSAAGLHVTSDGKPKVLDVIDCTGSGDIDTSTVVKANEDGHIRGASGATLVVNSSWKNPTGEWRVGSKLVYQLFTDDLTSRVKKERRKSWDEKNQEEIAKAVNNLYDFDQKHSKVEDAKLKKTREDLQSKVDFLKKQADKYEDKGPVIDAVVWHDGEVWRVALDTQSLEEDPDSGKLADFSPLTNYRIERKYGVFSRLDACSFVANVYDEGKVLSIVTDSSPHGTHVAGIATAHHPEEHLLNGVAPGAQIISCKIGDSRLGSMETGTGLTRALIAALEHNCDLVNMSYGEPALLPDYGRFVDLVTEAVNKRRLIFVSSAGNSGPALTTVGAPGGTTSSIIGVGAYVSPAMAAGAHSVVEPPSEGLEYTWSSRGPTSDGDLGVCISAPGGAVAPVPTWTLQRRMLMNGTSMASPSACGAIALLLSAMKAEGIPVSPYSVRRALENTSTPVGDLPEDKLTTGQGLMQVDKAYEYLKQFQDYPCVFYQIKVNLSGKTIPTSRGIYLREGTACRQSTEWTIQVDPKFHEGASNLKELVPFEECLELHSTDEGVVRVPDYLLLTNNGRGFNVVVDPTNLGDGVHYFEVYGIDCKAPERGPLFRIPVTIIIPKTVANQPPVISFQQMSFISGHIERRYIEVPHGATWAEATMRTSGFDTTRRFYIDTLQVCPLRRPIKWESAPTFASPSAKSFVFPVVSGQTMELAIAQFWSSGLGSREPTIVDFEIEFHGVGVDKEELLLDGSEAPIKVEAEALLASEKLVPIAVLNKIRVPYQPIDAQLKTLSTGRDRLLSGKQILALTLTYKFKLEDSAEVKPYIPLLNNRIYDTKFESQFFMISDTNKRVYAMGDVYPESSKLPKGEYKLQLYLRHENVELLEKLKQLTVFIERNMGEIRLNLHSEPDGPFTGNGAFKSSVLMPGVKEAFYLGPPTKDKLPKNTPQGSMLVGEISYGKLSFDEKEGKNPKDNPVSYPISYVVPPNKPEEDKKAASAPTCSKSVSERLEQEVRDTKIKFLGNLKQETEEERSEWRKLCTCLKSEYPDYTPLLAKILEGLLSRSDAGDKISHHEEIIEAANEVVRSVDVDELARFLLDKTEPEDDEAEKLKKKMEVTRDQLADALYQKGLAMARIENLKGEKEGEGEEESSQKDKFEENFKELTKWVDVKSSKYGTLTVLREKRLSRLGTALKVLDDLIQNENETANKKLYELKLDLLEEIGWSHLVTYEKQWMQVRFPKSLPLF

LOX2 = target: T5, LOX2 (Arabidopsis thaliana, UniProt P38418); assay: UV photo-crosslinking, anti-SA immunoblot; conditions: 50 uM 4AzSA, PBS, on ice, 254 nm UV; covalent; competed by SA
T5 construct: N-terminal His6 (pET28a), from E. coli
T5 sequence (P38418 57-896): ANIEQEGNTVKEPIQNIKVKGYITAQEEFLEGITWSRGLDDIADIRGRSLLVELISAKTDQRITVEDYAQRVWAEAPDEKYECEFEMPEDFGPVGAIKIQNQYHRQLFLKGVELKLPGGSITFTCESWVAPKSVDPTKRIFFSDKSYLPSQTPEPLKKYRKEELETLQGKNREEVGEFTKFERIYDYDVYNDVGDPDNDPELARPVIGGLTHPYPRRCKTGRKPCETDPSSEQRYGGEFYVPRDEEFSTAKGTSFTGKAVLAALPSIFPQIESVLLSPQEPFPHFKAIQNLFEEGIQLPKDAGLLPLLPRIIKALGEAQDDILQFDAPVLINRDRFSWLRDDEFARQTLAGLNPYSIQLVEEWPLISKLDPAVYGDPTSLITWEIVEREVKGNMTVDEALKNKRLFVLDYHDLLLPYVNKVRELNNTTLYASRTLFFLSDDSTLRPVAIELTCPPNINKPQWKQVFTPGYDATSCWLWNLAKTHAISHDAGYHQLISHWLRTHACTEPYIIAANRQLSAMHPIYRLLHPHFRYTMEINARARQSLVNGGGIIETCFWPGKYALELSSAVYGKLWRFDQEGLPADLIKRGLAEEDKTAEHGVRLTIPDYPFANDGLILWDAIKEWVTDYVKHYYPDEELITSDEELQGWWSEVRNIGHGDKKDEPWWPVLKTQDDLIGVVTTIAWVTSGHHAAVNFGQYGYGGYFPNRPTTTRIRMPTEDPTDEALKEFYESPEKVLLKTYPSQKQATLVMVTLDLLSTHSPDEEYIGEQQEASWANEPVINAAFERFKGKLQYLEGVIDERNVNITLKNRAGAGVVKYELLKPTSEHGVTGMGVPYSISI

Row | Compound | SPR competition on 3AESA chip; competition of 4AzSA photo-crosslinking (TRX-m1) | SPR competition on 3AESA chip; competition of 4AzSA photo-crosslinking (GSR2) | SPR competition on 3AESA chip; competition of 4AzSA photo-crosslinking (RBCS1A) | SPR competition on 3AESA chip; competition of 4AzSA photo-crosslinking (TPPII) | UV photo-crosslinking, anti-SA immunoblot (LOX2)
1 | O=C(O)c1ccccc1O [SA] | SA competes with 3AESA and 4AzSA for binding by TRX-m1, TPPII, SHM4, and LOX2 | bound 3AESA and crosslinked to 4AzSA in an SA-inhibitable manner, indicating that they are SABPs | bound 3AESA and crosslinked to 4AzSA in an SA-inhibitable manner, indicating that they are SABPs | SA competes with 3AESA and 4AzSA for binding by TRX-m1, TPPII, SHM4, and LOX2 | 
2 | [N-]=[N+]=Nc1ccc(C(=O)O)c(O)c1 [4AzSA] |  |  |  |  | These five proteins also bound and crosslinked to 4AzSA
